Test results published in publication PMC10318456, “Selective inhibitors of the PSEN1–gamma-secretase complex” (The Journal of Biological Chemistry, 2023).

Columns and labels:
Assay type in all cases: cell-based
[1] = target: T1, PSEN1 L166A–APH1A γ-secretase complex (Homo sapiens, UniProt P49768, L166A); experiment: Aβ40 secretion, MEF cell pool restored with PSEN1 L166A–APH1A; conditions: PSEN1 L166A (TM3)–APH1A cell pool; N = 3 to 4; mean (95% CI); decimal comma
T1 construct: expressed in transfected cells; host or cells: Psen1/2 double KO/Aph1ABC triple KO MEFs, pools without clonal selection
Description: (§1) We turned to experimental site–directed mutagenesis and selected a series of amino acids (Fig. 3) in the entrance channel for mutation to alanine. […] More importantly, they were all enzymatically active as shown by the secretion of Aβ40 in the supernatants of the cell cultures (Fig. 3B).
Conditional Psen1/2 double KO mice were crossed with conditional Aph1ABC triple KO mice ([29], [52], [58], [59]). At embryonic day 7.5, embryos were dissected and dissociated, and cells were plated in the presence of Dulbecco’s modified Eagle’s medium (DMEM)/F12 50% fetal calf serum (FCS) (Invitrogen). Primary MEFs were immortalized by transduction with LargeT antigen. Psen1/2 double KO/Aph1ABC triple KO MEFs were generated by transduction with a Cre-GFP–expressing adenoviral vector, and GFP-positive MEFs were sorted by fluorescence-activated cell sorting analysis. Psen1/2 Aph1ABC-deficient MEFs were maintained in DMEM/f12 10% FCS. […]
(§2) The number of plated cells and incubation times were determined in respect to linearity of Aβ peptide secretion, the dynamic range of Aβ peptide quantification in the medium, and sensitivity to dimethylsulfoxide (DMSO). […] The cell viability was assessed using the CellTiter-Glo Luminescent assay (Promega) that measures ATP production. […] We however measured five compounds at the Leuven site and noticed that absolute IC50 values were different (Fig. S2). […]

[2] = target: T2, PSEN1 W165A–APH1A γ-secretase complex (Homo sapiens, UniProt P49768+Q92542+Q96BI3+Q9NZ42, W165A); experiment: Aβ40 secretion, MEF cell pool restored with PSEN1 W165A–APH1A; conditions: PSEN1 W165A (TM3)–APH1A cell pool; N = 3 to 4; mean (95% CI); decimal comma
T2 construct: expressed in transfected cells; host or cells: Psen1/2 double KO/Aph1ABC triple KO MEFs, pools without clonal selection
Description: as §1
(§3) Conditional Psen1/2 double KO mice were crossed with conditional Aph1ABC triple KO mice ([29], [52], [58], [59]). At embryonic day 7.5, embryos were dissected and dissociated, and cells were plated in the presence of Dulbecco’s modified Eagle’s medium (DMEM)/F12 50% fetal calf serum (FCS) (Invitrogen). Primary MEFs were immortalized by transduction with LargeT antigen. Psen1/2 double KO/Aph1ABC triple KO MEFs were generated by transduction with a Cre-GFP–expressing adenoviral vector, and GFP-positive MEFs were sorted by fluorescence-activated cell sorting analysis. Psen1/2 Aph1ABC-deficient MEFs were maintained in DMEM/f12 10% FCS. To rescue γ-secretase expression, Psen1/2 double KO/Aph1ABC triple KO MEFs were transduced using Murine Stem Cell Virus retroviral vector system (pMSCV) viral vectors (Clontech) containing the human coding sequences of the different PSEN and APH1 homologs and the zeocin selection marker. An Internal Ribosome Entry Site sequence was cloned between the coding sequences for PSEN and APH1 to ensure co-expression of both proteins. Stable transfected cell lines were selected using 500-μg/ml zeocin (Invitrogen). Four different combinations were made: PSEN1 and APH1AL, PSEN1 and APH1B, PSEN2 and APH1AL, and PSEN2 and APH1B. These cell lines were transduced with pMSCV viral vectors (Clontech) expressing APP-C99-GFP-puromycin. […]
as §2

[3] = target: T3, PSEN1 Y154A–APH1A γ-secretase complex (Homo sapiens, UniProt P49768+Q92542+Q96BI3+Q9NZ42, Y154A); experiment: Aβ40 secretion, MEF cell pool restored with PSEN1 Y154A–APH1A; conditions: PSEN1 Y154A (TM2)–APH1A cell pool; N = 3 to 4; mean (95% CI); decimal comma
T3 construct: expressed in transfected cells; host or cells: Psen1/2 double KO/Aph1ABC triple KO MEFs, pools without clonal selection
Description: as §1, §3, §2

[4] = target: T4, PSEN1 W165A–APH1A γ-secretase complex (Homo sapiens, UniProt P49768, W165A); experiment: Aβ40 secretion, MEF cell pool restored with PSEN1 W165A–APH1A; conditions: decimal comma
T4 construct: expressed in transfected cells; host or cells: Psen1/2 double KO/Aph1ABC triple KO MEFs, pools without clonal selection
Description: as §1, §3, §2

[5] = target: T5, PSEN1 Y154A–APH1A γ-secretase complex (Homo sapiens, UniProt P49768, Y154A); experiment: Aβ40 secretion, MEF cell pool restored with PSEN1 Y154A–APH1A; conditions: decimal comma
T5 construct: expressed in transfected cells; host or cells: Psen1/2 double KO/Aph1ABC triple KO MEFs, pools without clonal selection
Description: as §1, §3, §2

IC50 [1] [µM] | IC50 [2] [µM] | IC50 [3] [µM] | IC50 ([4]; PSEN1 W165A (TM3)–APH1A cell pool, N = 3 to 4, mean (95% CI)) [µM] | IC50 fold change to WT ([4]; PSEN1 W165A–APH1A cell pool) | IC50 ([5]; PSEN1 Y154A (TM2)–APH1A cell pool, N = 3 to 4, mean (95% CI)) [µM] | IC50 fold change to WT ([5]; PSEN1 Y154A–APH1A cell pool) | Structure (SMILES)
0.642 | 0.102 | 1.03 | – | – | – | – | O=S(=O)(c1ccc(Cl)cc1)N1[C@H]2CC[C@@H]([C@H]1c1ccc(C(F)(F)F)cc1)[C@@H](O)C2 [(+)-9b]
1.37 | – | – | 0.304 | 1,802 fold | 0.103 | 0,611 fold | C[C@H](NC(=O)Cc1cc(F)cc(F)c1)C(=O)N[C@H](C(=O)OC(C)(C)C)c1ccccc1 [DAPT]
